According to patent publication US10358442B2, “2-homopiperazine-1-yl-4H-1,3-benzothiazine-4-one derivatives and process for the preparation of 2-(homo)piperazine 1,3-benzothiazine-4-one hydrochlorides” (Ecole Polytechnique Federale De Lausanne (EPFL), priority 2015, dated 2019):

Test system: M. tuberculosis NTB1
Format: cell-based

SMILES | NTB1 MIC99 [µg/mL]
CCCCCN1CCCN(c2nc(=O)c3cc(C(F)(F)F)cc([N+](=O)[O-])c3s2)CC1.Cl [Compound 2, 8-Nitro-2-(4-pentyl-1,4-diazepan-1-yl)-6-(trifluoromethyl)-4H-1,3-benzothiazin-4-one Hydrochloride] | >10
CCCCCCN1CCCN(c2nc(=O)c3cc(C(F)(F)F)cc([N+](=O)[O-])c3s2)CC1.Cl [Compound 3, 2-(4-Hexyl-1,4-diazepan-1-yl)-8-nitro-6-(trifluoromethyl)-4H-1,3-benzothiazin-4-one Hydrochloride] | >10
Cl.O=c1nc(N2CCCN(CCC3CCCCC3)CC2)sc2c([N+](=O)[O-])cc(C(F)(F)F)cc12 [Compound 4, 2-[4-(2-Cyclohexylethyl)-1,4-diazepan-1-yl]-8-nitro-6-(trifluoromethyl)-4H-1,3-benzothiazin-4-one Hydrochloride] | >10
CCCCCCCN1CCCN(c2nc(=O)c3cc(C(F)(F)F)cc([N+](=O)[O-])c3s2)CC1.Cl [Compound 5, 2-(4-Heptyl-1,4-diazepan-1-yl)-8-nitro-6-(trifluoromethyl)-4H-1,3-benzothiazin-4-one Hydrochloride] | 13.8
Cl.O=c1nc(N2CCCN(C3CCCCC3)CC2)sc2c([N+](=O)[O-])cc(C(F)(F)F)cc12 [Compound 6, 2-(4-Cyclohexyl-1,4-diazepan-1-yl)-8-nitro-6-(trifluoromethyl)-4H-1,3-benzothiazin-4-one Hydrochloride] | 50.5
Cl.O=c1nc(N2CCCN(CCc3ccccc3)CC2)sc2c([N+](=O)[O-])cc(C(F)(F)F)cc12 [Compound 7, 8-Nitro-2-[4-(2-phenylethyl)-1,4-diazepan-1-yl]-6-(trifluoromethyl)-4H-1,3-benzothiazin-4-one Hydrochloride] | 27.1
O=c1nc(N2CCN(CC3CCCCC3)CC2)sc2c([N+](=O)[O-])cc(C(F)(F)F)cc12 [PBTZ169, 2-[4-(cyclohexylmethyl)piperazin-1-yl]-8-nitro-6-(trifluoromethyl)-4H-1,3-benzothiazin-4-one, reference compound] | >100
